Results taken from patent publication US20150330992A1, “RAPID DISCOVERY AND SCREENING OF ENZYME ACTIVITY USING MASS SPECTROMETRY” (THE REGENTS OF THE UNIVERSITY OF CALIFORNIA, priority 2012, published 2015).
Like-named read-outs stand apart in the source and are kept apart here.

What was measured:
[1] = target: T1, chloramphenicol acetyltransferase (CAT) (Escherichia coli, UniProt P62577); conditions: 0.5 mM probe, 2 mM acetyl-CoA, 5 minutes; versus control lysate
Protocol: Enzymatic activity assay—Overnight cultures of E. coli DH1 harboring either pBbB8k-GFP or pBbB8k-CAT were diluted 1:10 in LB with 50 μg mL^−1 kanamycin, and grown for 1 hour at 37° C., after which they were induced with 0.2% (w/v) arabinose. After 2 hours of growth, 0.5 mL of the culture was centrifuged at ˜12000×g for 1 minute, the pellet was resuspended in 0.25 mL aqueous 50 mM sodium phosphate (pH 7.5) and sonicated for 30 seconds. Acetyl-CoA was added to a final concentration of 2 mM and 11 to a final concentration of 0.5 mM. The mixture was mixed and incubated at room temperature for 5 minutes, and subsequently quenched with an equal volume of methanol. A 0.3 μL droplet of the mixture was spotted onto a NIMS chip, and the excess liquid removed 5 seconds later by touching it with a Kimwipe (Kimberly-Clark). The spotted area was washed twice with 1 μL deionized water. The NIMS chip was taped to a modified standard MALDI plate, which was then loaded into an Applied Biosystems 4800 MALDI time of flight (TOF)//TOF mass spectrometer. […] Spectra were acquired in manual mode and positive polarity.

cytochrome P450BM3 = target: T2, cytochrome P450BM3 (Priestia megaterium, UniProt P14779); test: Whole-cell PECAN detection of cytochrome P450BM3 activity; format: cell-based, E. coli; conditions: 2 mM probe, 30° C., 16 h; versus GFP control
T2 construct: expressed in transfected cells; host or cells: E. coli liquid culture in terrific broth with d-aminolevulinic acid
Protocol: The CAEE PECAN probe was used to detect cytochrome P450BM3 activity in whole E. coli cell culture expressing cytochrome P450BM3 using NIMS technology. To 5 mL of E. coli liquid culture in teriffic broth supplemented with 0.5 mM d-aminolevulinic acid, expressing either GFP or cytochrome P450BM3, was added the CAEE PECAN probe to a final concentration of 2 mM and DMSO to a final concentration of 2%. The bacterial cultures were shaken in baffled borosilicate culture tubes at 30° C. for 16 h and quenched with an equal volume of methanol. 5 uL, of this mixture was then mixed with 5 uL, of click reaction solution [50 mM Tris(3-hydroxypropyltriazolylinethyl)amine (THPTA), 50 mM sodium ascorbate, 10 mM copper sulfate and 0.5 mM PECAN tag Nz-NPrg (structure shown below) in 50:50 water:methanol] and left to react overnight. NIMS analysis was performed as described above.

[2] = tested on: Alicycyclobacillus acidocaldarius β-glucosidase; conditions: lacking error analysis; read-out: KM, previously reported; cited from earlier work
[3] = tested on: Alicycyclobacillus acidocaldarius β-glucosidase; test: Steady-state kinetic analysis of β-glucosidase with varied cellobiose by oxime-NIMS; format: biochemical; conditions: 95% confidence level, r^2=0.997
Protocol: A velocity versus substrate concentration analysis was used to determine the kinetic parameters for β-glucosidase (Aa-βG) from the thermoacidophilic bacterium Alicycyclobacillus acidocaldarius 22 using pure cellobiose as substrate. The experimental data were analyzed using the NonlinearModelFit routine of Mathematic v.8 (Wolfram Research) and v=kcat [S]/(KM+[S]) (kcat, KM, and [S] have their usual definitions).
Glucose formed at different time points from the reaction of Alicycyclobacillus acidocaldarius β-glucosidase with varied cellobiose concentration was quantified and used for steady-state kinetic analysis. The data were analysed using the NonlinearModelFit routine of Mathematic v.8 and v=kcat [S]/(KM+[S]), where kcat, KM, and [S] have their usual definitions.

[4] = target: T1, chloramphenicol acetyltransferase (CAT); test: PECAN detection of CAT activity in whole E. coli cell culture; format: cell-based; set-up: expressed in transfected cells; host or cells: E. coli DH1 harboring pBbB8k-CAT, arabinose-induced, sonicated lysate; conditions: whole cell culture without exogenous cofactors, 2 mM probe, 1 h
Protocol: For the detection of CAT activity in E. coli cell culture, to 5 mL, of E. coli culture in LB medium expressing either GFP or CAT was added the ChlorHexy PECAN probe to a final concentration of 2 mM. The bacterial cultures were shaken at 37° C. for 1 h and quenched with an equal volume of methanol. 5 uL of this mixture was then mixed with 5 ul, of click reaction solution (recipe described above) and left to react overnight. NIMS analysis was performed as described above.
In FIG. 25, the 42-mass unit shift relative to the GFP control was the mass of a single acetyl group attached to the probe.

[5] = target: T1, chloramphenicol acetyltransferase (CAT); test: PECAN detection of CAT activity in E. coli cell lysate; format: biochemical; set-up: expressed in transfected cells; host or cells: E. coli DH1 harboring pBbB8k-CAT, arabinose-induced, sonicated lysate; conditions: cell lysate with added acetyl-CoA, 2 mM probe
Protocol: Acetyl-CoA was added to a final concentration of 5 mM and the ChlorHexy PECAN probe to a final concentration of 2 mM. […] 5 uL, of the mixture was then mixed with 5 uL of click reaction solution [50 mM Tris(3-hydroxypropyltriazolylmethyl)amine (THPTA), 50 mM sodium ascorbate, 10 mM copper sulfate and 0.5 mM PECAN tag Nz-N3 (structure shown below) in 50:50 water:methanol] and left to react overnight. […] The spotted area was washed with 2×1 μL deionized water and NIMS spectra were obtained.

T1 sequence (P62577 whole entry, looked up): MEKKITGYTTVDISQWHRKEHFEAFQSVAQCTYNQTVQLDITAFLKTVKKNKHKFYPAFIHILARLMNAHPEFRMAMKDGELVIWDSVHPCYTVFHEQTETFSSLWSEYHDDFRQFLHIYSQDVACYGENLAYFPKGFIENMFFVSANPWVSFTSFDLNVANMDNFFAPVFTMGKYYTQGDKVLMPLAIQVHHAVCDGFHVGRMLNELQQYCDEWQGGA
T2 sequence (P14779 whole entry): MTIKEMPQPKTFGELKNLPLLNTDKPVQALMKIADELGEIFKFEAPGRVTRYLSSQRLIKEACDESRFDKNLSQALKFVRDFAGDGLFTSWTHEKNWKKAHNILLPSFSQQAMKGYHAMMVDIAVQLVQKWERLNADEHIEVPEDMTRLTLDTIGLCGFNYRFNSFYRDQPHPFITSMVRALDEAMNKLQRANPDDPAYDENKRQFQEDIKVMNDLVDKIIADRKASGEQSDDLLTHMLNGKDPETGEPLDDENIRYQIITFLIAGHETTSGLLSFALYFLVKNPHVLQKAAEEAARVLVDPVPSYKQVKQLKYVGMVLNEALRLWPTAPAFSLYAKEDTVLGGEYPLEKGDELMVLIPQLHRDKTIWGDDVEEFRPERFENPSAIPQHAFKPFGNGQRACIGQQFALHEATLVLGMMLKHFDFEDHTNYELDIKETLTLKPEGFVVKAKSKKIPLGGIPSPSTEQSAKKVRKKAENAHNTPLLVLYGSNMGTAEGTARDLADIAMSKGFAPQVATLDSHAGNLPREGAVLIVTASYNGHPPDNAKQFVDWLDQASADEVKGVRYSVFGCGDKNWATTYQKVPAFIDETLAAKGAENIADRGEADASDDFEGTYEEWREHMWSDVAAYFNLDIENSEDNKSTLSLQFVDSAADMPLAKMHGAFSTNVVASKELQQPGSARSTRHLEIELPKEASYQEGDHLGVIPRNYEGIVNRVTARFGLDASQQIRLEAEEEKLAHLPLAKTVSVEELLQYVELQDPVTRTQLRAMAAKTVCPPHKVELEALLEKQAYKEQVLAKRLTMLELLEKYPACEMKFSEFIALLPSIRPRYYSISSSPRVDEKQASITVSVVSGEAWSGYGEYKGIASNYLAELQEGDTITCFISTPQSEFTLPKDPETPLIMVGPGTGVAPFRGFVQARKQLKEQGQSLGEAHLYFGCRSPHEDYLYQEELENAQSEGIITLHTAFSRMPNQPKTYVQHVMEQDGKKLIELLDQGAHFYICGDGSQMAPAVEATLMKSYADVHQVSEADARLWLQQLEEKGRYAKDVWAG

(1R,2R)-N-Nz-1-(4-nitrophenyl)propane-1,3-diol [Compound 11]
conversion of probe by CAT (NIMS mass shift) [1]: the peak shifts by 42 mass units, as expected from monoacetylation

[N-]=[N+]=NCCOC(=O)C1=CCCCC1 [CAEE, cyclohexenecarboxylate azidoethyl ester]
conversion of probe by cytochrome P450BM3 (NIMS mass shift) (cytochrome P450BM3): 16-mass unit shift relative to the GFP control

O=C[C@H](O)[C@@H](O)[C@H](O[C@@H]1O[C@H](CO)[C@@H](O)[C@H](O)[C@H]1O)[C@H](O)CO [cellobiose]
Km [2]: ~10 mM
Km [3]: 12.1 ± 4.6 mM
kcat [3]: 1430 ± 850 s⁻¹

C#CCCCC(=O)N[C@H](CO)[C@H](O)c1ccc([N+](=O)[O-])cc1 [ChlorHexy, chloramphenicol 5-hexynamide]
CAT activity detected with probe [4]: CAT activity was detected
CAT activity detected with probe [5]: CAT activity was detected
